Assay [1] deals with human RORγt ligand binding domain (RORγt LBD) (Homo sapiens (Human), UniProt P51449). Nature of the assay: RORγt ThermoFluor assay. From the text: ThermoFluor® is a fluorescence based assay that estimates ligand binding affinities by measuring the effect of a ligand on protein thermal stability (Pantoliano, M. W., Petrella, E. C., Kwasnoski, J. D., Lobanov, V. S., Myslik, J., Graf, E., Carver, T., Asel, E., Springer, B. A., Lane, P., and Salemme, F. R. (2001) High-density miniaturized thermal shift assays as a general strategy for drug discovery. J Biomol Screen 6, 429-40, and Matulis, D., Kranz, J. K., Salemme, F. R., and Todd, M. J. (2005) Thermodynamic stability of carbonic anhydrase: measurements of binding affinity and stoichiometry using ThermoFluor. Biochemistry 44, 5258-66). This approach is applicable to a wide variety of systems, and rigorous in theoretical interpretation through quantitation of equilibrium binding constants (KD).
The shift in the melting point described as a ΔTm is proportional to the concentration and affinity of the ligand.
RORγt ThermoFluor® Assay Construct
Nucleotides 850-1635 (SEQ ID NO:2) coding for the wild type human RORγt ligand binding domain (RORγt LBD) were cloned into the pHIS 1 vector, a modified pET E. coli expression vector (Accelagen, San Diego), containing an in-frame N-terminal His-tag and a TurboTEV protease cleavage site (ENLYFQG, SEQ ID NO:3) upstream of the cloned insert sequence. The amino acid sequence for the RORγt construct used in the Thermofluor® assay is shown as SEQ ID NO:4.
ThermoFluor® experiments were carried out using instruments owned by Janssen Research and Development, L.L.C. through its acquisition of 3-Dimensional Pharmaceuticals, Inc. 1,8-ANS (Invitrogen) was used as a fluorescent dye. Protein and compound solutions are dispensed into black 384-well polypropylene PCR microplates (Abgene) and overlayed with silicone oil (1 μL, Fluka, type DC 200) to prevent evaporation.
Bar-coded assay plates are robotically loaded onto a thermostatically controlled PCR-type thermal block and then heated at a typical ramp-rate of 1° C./min for all experiments. Fluorescence was measured by continuous illumination with UV light (Hamamatsu LC6) supplied via fiber optic and filtered through a band-pass filter (380-400 nm; >6 OD cutoff). Fluorescence emission of the entire 384-well plate was detected by measuring light intensity using a CCD camera (Sensys, Roper Scientific) filtered to detect 500±25 nm, resulting in simultaneous and independent readings of all 384 wells. Images were collected at each temperature, and the sum of the pixel intensity in a given area of the assay plate was recorded versus temperature. Reference wells contained RORγt without compounds, and the assay conditions were as follows: • 0.065 mg/mL RORγt • 60 μM 1,8-ANS • 100 mM Hepes, pH 7.0 • 10 mM NaCl • 2.5 mM GSH • 0.002% Tween-20
Project compounds were arranged in a pre-dosed mother plate (Greiner Bio-one) wherein compounds are serially diluted in 100% DMSO by 1:2 from a high concentration of 10 mM over 12 columns within a series (column 12 is a reference well containing DMSO, no compound). The compounds were robotically dispensed directly into assay plates (1×=46 nL) using a Hummingbird capillary liquid handling instrument (Digilab). Following compound dispense, protein and dye in buffer was added to achieve the final assay volume of 3 μL, followed by 1 μL of silicone oil.
The binding affinity was estimated as described previously (Matulis, D., Kranz, J. K., Salemme, F. R., and Todd, M. J. (2005) Thermodynamic stability of carbonic anhydrase: measurements of binding affinity and stoichiometry using ThermoFluor®. Biochemistry 44, 5258-66) using the following thermodynamic parameters of protein unfolding: […]
(In general: In DSF a fluorescence change marks the thermal transition of the protein.)

Another assay deals with full-length human RORγt (Homo sapiens (Human), UniProt P51449). Nature of the assay: RORγt (full-length human) reporter assay, conditions A or B. The format is cell-based. The note with it: for IC50: HEK293T cells, read-out: RORγt (FL) Reporter Assay A or B, IC50; for inhibition at 2 µM: 2 μM compound concentration (**). From the text:
RORγt (Full-Length Human) Reporter Assay:
Cells used in this assay were transiently co-transfected with three different plasmids, one expressing the GAL4-DNA binding domain (DBD)-RORγt fusion protein under control of a CMV promoter (NH2-Gal4-DBD:RORC—COOH in pCMV-BD, Stratagene #211342), and two reporter plasmids—the firefly luciferase reporter under control of a GAL4 promoter (pFR-Luc 2×GAL4) and Renilla luciferase reporter under control of CMV promoter (pRL-CMV, Promega #E2261). […] HEK293T cells were plated at 35,000 per well in 96-well plate in medium of DMEM with 10% FBS. After 18-22 hours incubation, the transfection was carried out by using a PEI solution with 170.5 ng total DNA/well (50 ng pCMV-BD-ROR plus 20 ng of pFR-Luc reporter and 0.5 ng of pRL-CMV reporter plus 100 ng Carrier DNA (Clontech #630440) for each well). 4-6 hours after transfection, cells were treated with compounds for overnight in the medium with final concentration of FBS 1.3% and DMSO 0.1%. After overnight (16 to 20 hours) incubation, media were removed and cells were lysed with […] Glo Lysis Buffer (Promega) for 10-15 minutes followed by 10 minute incubation with 50 μL Dual Glo reagent (Promega) at room temperature. Firefly luciferase luminescence was measured using a BMG Pherastar plate reader. To each well, 50 μL Stop and Glo reagent was added and incubated for 10 minutes at room temperature. Renilla luminescence was measured using a BMG Pherastar plate reader. To calculate the effect of compounds on RORγt activity, firefly values were normalized against values of DMSO only and values of reference compound at saturating concentration, then further normalized against Renilla signals. IC50s were generated by plotting final Renilla normalized data against compound concentration and percent inhibition was calculated against DMSO control.
Cells used in this assay were transiently co-transfected with three different plasmids, one expressing the GAL4-DNA binding domain (DBD)-RORγt fusion protein under control of a CMV promoter (NH2-Gal4-DBD:RORC—COOH in pCMV-BD, Stratagene #211342), and two reporter plasmids—the firefly luciferase reporter under control of a GAL4 promoter (pFR-Luc 2×GAL4) and Renilla luciferase reporter under control of CMV promoter (pRL-CMV, Promega #E2261). […] HEK293T cells were plated at 8750 cells per well in 384-well plate in medium of DMEM with 10% FBS. After 18-22 hours incubation, the transfection was carried out by using a PEI solution with 42.6 ng total DNA/well (12.5 ng pCMV-BD-ROR plus 5 ng of pFR-Luc reporter and 0.125 ng of pRL-CMV reporter plus 25 ng Carrier DNA (Clontech #630440) for each well). 4-6 hours after transfection, cells were treated with compounds for overnight in the medium with final concentration of FBS 1.3% and DMSO 0.1%. After overnight (16 to 20 hours) incubation, media were removed and cells were lysed with 20 μL Glo Lysis Buffer (Promega) for 10-15 minutes followed by 10 minute incubation with 20 μL Dual Glo reagent (Promega) at room temperature. Firefly luciferase luminescence was measured using a BMG Pherastar plate reader. To each well, 20 μL Stop and Glo reagent was added and incubated for 10 minutes at room temperature. Renilla luminescence was measured using a BMG Pherastar plate reader. To calculate the effect of compounds on RORγt activity, firefly values were normalized against values of DMSO only and values of reference compound at saturating concentration, then further normalized against Renilla signals. IC50s were generated by plotting final Renilla normalized data against compound concentration and percent inhibition was calculated against DMSO control.

[2] abbreviates: read-out: RORγt (FL) Reporter Assay A or B, % inhibition.
[3] abbreviates: read-out: RORγt (FL) Reporter Assay A or B, % inhibition, 3 μM compound concentration (*).

Experimental findings from patent US11345666B2, “Phenyl and pyridinyl substituted imidazoles as modulators of RORγT” (Janssen Pharmaceutica NV, priority 2018, dated 2022) are described below.

Like-named read-outs stand apart in the source and are kept apart here. Marks after values point to notes of the source that are not given here.

full-length human RORγt, sequence (P51449 other isoform, or with tags, fused parts or gaps): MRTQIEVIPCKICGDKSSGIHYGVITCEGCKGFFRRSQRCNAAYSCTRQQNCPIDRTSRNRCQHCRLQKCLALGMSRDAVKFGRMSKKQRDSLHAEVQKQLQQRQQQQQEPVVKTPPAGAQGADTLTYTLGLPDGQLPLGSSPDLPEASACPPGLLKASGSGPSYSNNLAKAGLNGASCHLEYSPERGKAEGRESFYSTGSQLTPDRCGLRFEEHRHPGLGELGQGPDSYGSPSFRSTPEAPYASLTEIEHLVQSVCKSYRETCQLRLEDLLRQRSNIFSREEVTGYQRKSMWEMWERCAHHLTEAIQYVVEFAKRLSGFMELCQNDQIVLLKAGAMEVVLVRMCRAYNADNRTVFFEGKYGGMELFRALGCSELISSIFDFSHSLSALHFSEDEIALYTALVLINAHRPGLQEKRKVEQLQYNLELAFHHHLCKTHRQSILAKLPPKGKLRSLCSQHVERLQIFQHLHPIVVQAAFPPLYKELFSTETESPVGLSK
human RORγt ligand binding domain (RORγt LBD), sequence (P51449 other isoform, or with tags, fused parts or gaps): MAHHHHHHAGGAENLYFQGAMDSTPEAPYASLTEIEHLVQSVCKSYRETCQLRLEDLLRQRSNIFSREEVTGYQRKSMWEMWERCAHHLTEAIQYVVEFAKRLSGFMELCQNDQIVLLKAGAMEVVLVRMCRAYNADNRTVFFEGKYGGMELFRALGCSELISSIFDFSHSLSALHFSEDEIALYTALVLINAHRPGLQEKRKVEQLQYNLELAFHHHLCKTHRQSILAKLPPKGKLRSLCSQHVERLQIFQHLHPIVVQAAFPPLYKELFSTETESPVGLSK

With `Cc1nc(C(=O)NC[C@@H]2CC[C@@H](S(C)(=O)=O)C[C@H]2O)c(C#N)n1-c1ccc(CC(C)(C)C(F)(F)F)cc1OC(F)F` (racemic) [Example 55, 5-Cyano-1-(2-(difluoromethoxy)-4-(3,3,3-trifluoro-2,2-dimethylpropyl)phenyl)-N-(((1RS,2SR,4SR)-2-hydroxy-4-(methylsulfonyl)cyclohexyl)methyl)-2-methyl-1H-imidazole-4-carboxamide], the Kd (usually the free concentration of one partner at which half of the binding sites on the other are occupied at equilibrium, for simple one-to-one binding) in assay [1] was 20 nM. The inhibition at 3 µM on full-length human RORγt (3 μM compound concentration (*), read-out: RORγt (FL) Reporter Assay A or B, % inhibition) was found to be 93%. Also, the IC50 (commonly the concentration that gives 50% inhibition) at full-length human RORγt was found to be 66 nM.

Regarding `CCc1nc(C(=O)NC[C@H]2CC[C@H](S(C)(=O)=O)CC2)c(Cl)n1-c1ccc(CC(C)C(F)(F)F)cc1OC` (single isomer, unassigned) [Example 5, 5-Chloro-2-ethyl-1-((1R*)-2-methoxy-4-(3,3,3-trifluoro-2-methylpropyl)phenyl)-N-(((1r,4R)-4-(methylsulfonyl)cyclohexyl)methyl)-1H-imidazole-4-carboxamide], the Kd in assay [1] is 1300 nM. Moreover, on full-length human RORγt (0.67 μM compound concentration (****)), the “RORγt (FL) Reporter Assay A or B, % inhibition” value is listed as 43**** %. In addition, the IC50 at full-length human RORγt turned out to be 260 nM.

For the compound `CCc1nc(C(=O)NC[C@]2(O)CC[C@@H](S(C)(=O)=O)CC2)cn1-c1ccc(C[C@@H](C)C(F)(F)F)cc1OC` (single isomer, unassigned) [Example 17, 2-Ethyl-N-(((1s,4S)-1-hydroxy-4-(methylsulfonyl)cyclohexyl)methyl)-1-(2-methoxy-4-((R*)-3,3,3-trifluoro-2-methylpropyl)phenyl)-1H-imidazole-4-carboxamide], in assay [1], the Kd stood at 75 nM. Further, the inhibition at 2 µM on full-length human RORγt (setting [2]) was 74%. At full-length human RORγt, the IC50 worked out at 400 nM.

`CCc1nc(C(=O)NC[C@H]2CC[C@H](S(C)(=O)=O)CC2)cn1-c1ccc(C[C@@H](C)C(F)(F)F)cc1OC` (single isomer, unassigned) [Example 18, 2-Ethyl-1-(2-methoxy-4-((R*)-3,3,3-trifluoro-2-methylpropyl)phenyl)-N-(((1r,4R)-4-(methylsulfonyl)cyclohexyl)methyl)-1H-imidazole-4-carboxamide]: the dissociation constant (Kd) in assay [1] came to 28 nM. In addition, the inhibition at 2 µM at full-length human RORγt (setting [2]) amounted to 93%. In addition, on full-length human RORγt, the IC50 was 230 nM.

In assay [1], `CCc1nc(C(=O)NC[C@]2(O)CC[C@@H](S(C)(=O)=O)CC2)cn1-c1ccc(C[C@H](C)C(F)(F)F)cc1OC` (single isomer, unassigned) [Example 19, 2-Ethyl-N-(((1s,4R)-1-hydroxy-4-(methylsulfonyl)cyclohexyl)methyl)-1-(2-methoxy-4-((S*)-3,3,3-trifluoro-2-methylpropyl)phenyl)-1H-imidazole-4-carboxamide] registered a Kd of 50 nM. The inhibition at 2 µM on full-length human RORγt (setting [2]) amounted to 80%. Besides, the half-inhibitory concentration (IC50) on full-length human RORγt is 360 nM.

For `CCc1nc(C(=O)NC[C@H]2CC[C@H](S(C)(=O)=O)CC2)cn1-c1ccc(C[C@H](C)C(F)(F)F)cc1OC` (single isomer, unassigned) [Example 20, 2-Ethyl-1-(2-methoxy-4-((S*)-3,3,3-trifluoro-2-methylpropyl)phenyl)-N-(((1r,4S)-4-(methylsulfonyl)cyclohexyl)methyl)-1H-imidazole-4-carboxamide], the Kd in assay [1] was determined as 21 nM. Moreover, at full-length human RORγt (setting [2]), the inhibition at 2 µM was found to be 94%. Further, the IC50 on full-length human RORγt was found to be 170 nM.

Regarding `Cc1nc(C(=O)NC[C@H]2CC[C@H](S(C)(=O)=O)C[C@@H]2O)c(C#N)n1-c1ccc(CC(C)(C)C(F)(F)F)cc1OC(F)F` (single isomer, unassigned) [Example 56, 5-Cyano-1-(2-(difluoromethoxy)-4-(3,3,3-trifluoro-2,2-dimethylpropyl)phenyl)-N-(((1R*,2S*,4S*)-2-hydroxy-4-(methylsulfonyl)cyclohexyl)methyl)-2-methyl-1H-imidazole-4-carboxamide], the Kd in assay [1] is 32 nM. The IC50 on full-length human RORγt was determined as 63 nM. For the same compound, the inhibition at 3 µM on full-length human RORγt (setting [3]) was 102%.

`Cc1nc(C(=O)NC[C@@H]2CC[C@@H](S(C)(=O)=O)C[C@H]2O)c(C#N)n1-c1ccc(CC(C)(C)C(F)(F)F)cc1OC(F)F` (single isomer, unassigned) [Example 57, 5-Cyano-1-(2-(difluoromethoxy)-4-(3,3,3-trifluoro-2,2-dimethylpropyl)phenyl)-N-(((1S*,2R*,4R*)-2-hydroxy-4-(methylsulfonyl)cyclohexyl)methyl)-2-methyl-1H-imidazole-4-carboxamide] displayed a Kd in assay [1] of 22 nM. Also, at full-length human RORγt, the IC50 worked out at 40 nM. In addition, the inhibition at 3 µM on full-length human RORγt (setting [3]) stood at 98%.
